One test deals with murine splenocyte. As to the kind of experiment: murine splenocyte assay for immunosuppressive activity. It is filed as cell-based. Conditions: read-out: Splenocyte IC50. How it is done: 3. Conventional murine splenocyte assay for immunosuppressive activity.
(§1) A diverse group of C7-modified 28-epirapalogs were prepared as described in Example 4.

Another test addresses FKBP (Homo sapiens, UniProt P62942). As to the kind of experiment: FKBP competitive binding assay based on fluorescence polarization (FP). The settings on record: competitive FP binding. How it is done: A Competitive Binding FP Assay is described in detail in WO99/36553 and WO96/41865. That assay permits the in vitro measurement of an IC50 value for a given compound which reflects its ability to bind to an FKBP-protein in competition with a labeled FKBP ligand, such as, for example, FK506.
as §1

Test [1] has as its target T1, transcriptional switch components containing FKBP and 2098L mutant FRB domains (Homo sapiens, UniProt P42345+P62942).
T1 construct: transcriptional switchcomponents containing FKBP and 2098L mutant FRB domains, respectively; fused on or other part: The two switch components are separate chimeric proteins; Neither is given for this cell line
As to the kind of experiment: transcription assay in engineered HD1080 cells expressing SEAP (txn 2098L). It is filed as cell-based. Conditions: for TXN 2098L peak relative to rapamycin peak: superscript mark on EC50 cell. A digest of the protocol:
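HT1080-type engineered HD1080 cells constitutively express FKBP and 2098L-mutant FRB switch components and express SEAP upon compound-induced multimerization. Compound added to medium; secreted SEAP reporter measured after incubation. EC50 derived.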

[2] abbreviates: methods of Example 2.5, read-out: FKBP IC50.
Where [3] appears, read: cellular transcription assay, methods of Example 2.5, read-out: TXN 2098L EC50.
[4] abbreviates: Mus musculus, Splenocyte, murine splenocyte assay, immunosuppressive activity.
Where [5] appears, read: fluorescein-labelled FK506 probe (AP1491), read-out: FKBP binding IC50.
Setting [6] is: HD1080 cells, FKBP and 2098L mutant FRB switch, SEAP reporter, read-out: txn 2098L EC50.

pEC50, pIC50: −log10 of the molar value. Where two headings read alike, the source gives them in different places.

FKBP, sequence (P62942 whole entry): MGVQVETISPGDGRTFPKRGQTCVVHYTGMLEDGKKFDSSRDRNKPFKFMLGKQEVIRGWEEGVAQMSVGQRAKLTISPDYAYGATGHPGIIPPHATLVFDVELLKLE
T1 sequence (P62942 2-108 limits assumed, stated change not applied, other chains not shown): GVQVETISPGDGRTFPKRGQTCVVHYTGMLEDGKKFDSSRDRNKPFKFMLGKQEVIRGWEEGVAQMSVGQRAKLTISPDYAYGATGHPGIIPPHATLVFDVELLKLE

As to `COC1CC(CC(C)C2CC(=O)C(C)C=C(C)C(O)C(OC)C(=O)C(C)CC(C)C=CC=CC=C(C)C(NC(=O)Oc3ccccc3)CC3CCC(C)C(O)(O3)C(=O)C(=O)N3CCCCC3C(=O)O2)CCC1O` (stereo not drawn) [28-epi-7S-phenylcarbamate], the pIC50 with murine splenocyte (mouse splenocyte assay, methods of Example 2.5) was under 5.30; at FKBP (setting [2]), 7.74. In addition, the pEC50 in test [1] (setting [3]) is 7.85. Also, the “TXN 2098L peak relative to rapamycin peak” value in test [1] is on record as “(+) (peak was >125% rapamycin peak)”.
`CO[C@@H]1C[C@H](C[C@@H](C)[C@@H]2CC(=O)[C@H](C)/C=C(\C)[C@H](O)[C@@H](OC)C(=O)[C@H](C)C[C@H](C)/C=C/C=C/C=C(\C)[C@@H](Oc3ccccc3)C[C@@H]3CC[C@@H](C)[C@@](O)(O3)C(=O)C(=O)N3CCCC[C@H]3C(=O)O2)CC[C@H]1O` [28-epi-7S-phenyloxy]: the pIC50 with murine splenocyte (Mus musculus, Splenocyte, mouse splenocyte assay, methods of Example 2.5) was 5.60 to 6.32; at FKBP (setting [2]) it was 7.44. Besides, the pEC50 in test [1] (setting [3]) is 8.10. The “TXN 2098L peak relative to rapamycin peak” value in test [1] is on record as “(−) (peak was <80% rapamycin peak)”.
Regarding `COCO[C@@H]1CC[C@@H](C[C@@H](C)[C@@H]2CC(=O)[C@H](C)/C=C(\C)[C@H](O)[C@@H](OC)C(=O)[C@H](C)C[C@H](C)/C=C/C=C/C=C(\C)[C@@H](OC)C[C@@H]3CC[C@@H](C)[C@@](O)(O3)C(=O)C(=O)N3CCCC[C@H]3C(=O)O2)C[C@H]1OC` [43-O-MOM-28-epirapamycin], the figures for the pIC50 with murine splenocyte (setting [4]) and at FKBP (setting [5]) were 8.80 to 9.22 and 7.57, respectively. Also, the pEC50 in test [1] (setting [6]) is 8.15.
As to `C=CCO[C@@H]1CC[C@@H](C[C@@H](C)[C@@H]2CC(=O)[C@H](C)/C=C(\C)[C@H](O)[C@@H](OC)C(=O)[C@H](C)C[C@H](C)/C=C/C=C/C=C(\C)[C@@H](OC)C[C@@H]3CC[C@@H](C)[C@@](O)(O3)C(=O)C(=O)N3CCCC[C@H]3C(=O)O2)C[C@H]1OC` [43-O-allyl-28-epirapamycin], the pIC50 with murine splenocyte (setting [4]) was 6.16 to 6.19; at FKBP (setting [5]) it was 7.19. Further, the pEC50 in test [1] (setting [6]) was 8.10.
As to `CO[C@H]1C[C@@H]2CC[C@@H](C)[C@@](O)(O2)C(=O)C(=O)N2CCCC[C@H]2C(=O)O[C@H]([C@H](C)C[C@@H]2CC[C@@H](OCc3ccccc3)[C@H](OC)C2)CC(=O)[C@H](C)/C=C(\C)[C@H](O)[C@@H](OC)C(=O)[C@H](C)C[C@H](C)/C=C/C=C/C=C/1C` [43-O-benzyl-28-epirapamycin], the pIC50 is about 5.92 with murine splenocyte (setting [4]) and 7.20 on FKBP (setting [5]). Besides, in test [1] (setting [6]), the pEC50 is 7.92.
As for `CO[C@H]1C[C@@H]2CC[C@@H](C)[C@@](O)(O2)C(=O)C(=O)N2CCCC[C@H]2C(=O)O[C@H]([C@H](C)C[C@@H]2CC[C@@H](OC)[C@H](OC)C2)CC(=O)[C@H](C)/C=C(\C)[C@H](O)[C@@H](OC)C(=O)[C@H](C)C[C@H](C)/C=C/C=C/C=C/1C` [43-O-methyl-28-epirapamycin], the pIC50 in the test with murine splenocyte (setting [4]) is 7.51 to 7.70; at FKBP (setting [5]), 7.47. In addition, the pEC50 in test [1] (setting [6]) was 8.52.
